ChEMBL document CHEMBL1147894, “Amphiphilic polyether branched molecules to increase the circulation time of cationic particles” (Bioorg Med Chem, 2007)
Active and inactive are the calls of the source. The rule behind the calls is not given here.

Key:
Mus musculus = species: Mus musculus; assay: Biodistribution in C57BL/6 mouse blood after 30 mins; type: ADME, organism-based; details: in vivo, 0.5 h
B16 = assay: Decrease in transfection efficacy in […] B16 cells assessed by luciferase assay; type: functional, cell-based

SMILES | Activity (Mus musculus) [%] | Activity (B16)
CCCCCCCCCCCCCCCCCCN(CCCCCCCCCCCCCCCCCC)C(=O)CNC(=O)CNC(=O)CNC(=O)OCC(COC(CO)CO)COC(CO)CO | 8 | Active
CCCCCCCCCCCCCCN(CCCCCCCCCCCCCC)C(=O)CNC(=O)CNCCCN(CCCN)CCCN.Cl.Cl.Cl.Cl | 2.7 | 
